Results reported in ChEMBL document CHEMBL1201862, “PubChem BioAssay data set” (2004).
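48-hour exposure; five concentrations; linearly interpolated endpoints. GI50: concentration for 50% inhibition of growth.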 Activity calls are given as the source filed them. No stated cut-off is given here; in the data, active = GI50 up to about 1.1 µM and inactive = higher.

Assays:
Test in all cases: DTP human tumour cell line panel, 48 h
OVCAR-5 = system: OVCAR-5
A549 = system: A549
SK-OV-3 = system: SK-OV-3
SR = system: SR
KM12 = system: KM12
RPMI-8226 = system: RPMI-8226
K562 = system: K562
TK-10 = system: TK-10
HL-60 = system: HL-60
SF-295 = system: SF-295
SK-MEL-5 = system: SK-MEL-5
SW-620 = system: SW-620
NCI-H226 = system: NCI-H226
SN12C = system: SN12C
LOX IMVI = system: LOX IMVI
MOLT-4 = system: MOLT-4
786-0 = system: 786-0
HT-29 = system: HT-29
OVCAR-8 = system: OVCAR-8
Hs-578T = system: Hs-578T

Row | Structure (SMILES) | GI50 (OVCAR-5) | GI50 (A549) | GI50 (SK-OV-3) | GI50 (SR) | GI50 (KM12) | GI50 (RPMI-8226) | GI50 (K562) | GI50 (TK-10) | GI50 (HL-60) | GI50 (SF-295) | GI50 (SK-MEL-5) | GI50 (SW-620) | GI50 (NCI-H226) | GI50 (SN12C) | GI50 (LOX IMVI) | GI50 (MOLT-4) | GI50 (786-0) | GI50 (HT-29) | GI50 (OVCAR-8) | GI50 (Hs-578T)
1 | N#C/C(=C/c1cccnc1)C(=O)c1ccccc1 | > 100 µM (inactive) | > 100 µM (inactive) | > 100 µM (inactive) | > 100 µM (inactive) | > 100 µM (inactive) | > 100 µM (inactive) | > 100 µM (inactive) | > 100 µM (inactive) | > 100 µM (inactive) | > 100 µM (inactive) | > 100 µM (inactive) | > 100 µM (inactive) | > 100 µM (inactive) | > 100 µM (inactive) | > 100 µM (inactive) | > 100 µM (inactive) | > 100 µM (inactive) | > 100 µM (inactive) | > 100 µM (inactive) | 
2 | N#Cc1c2c(c(N=[N+]=[N-])n3c1nc1ccccc13)CCCC2 | 6.07 µM (inactive) | 4.67 µM (inactive) | 1.8 µM (inactive) | 2.1 µM (inactive) | 2.29 µM (inactive) | 1.71 µM (inactive) | 2.16 µM (inactive) | 2.77 µM (inactive) | 2.32 µM (inactive) | 2.05 µM (inactive) | 18.3 µM (inactive) | 2.05 µM (inactive) | 1.73 µM (inactive) | 2.14 µM (inactive) | 1.8 µM (inactive) | 1.62 µM (inactive) | 1.9 µM (inactive) | 1.98 µM (inactive) | 1.69 µM (inactive) | 
3 | CCCCCCCCCc1nn2c(Cc3ccccc3)nnc2s1 | 14.4 µM (inactive) | 20.5 µM (inactive) | 25.5 µM (inactive) |  | 25 µM (inactive) | 23.6 µM (inactive) | 32.5 µM (inactive) | 24.6 µM (inactive) |  | 18.9 µM (inactive) | 15.9 µM (inactive) | 17.6 µM (inactive) |  | 18.2 µM (inactive) |  | 17.3 µM (inactive) | 19.2 µM (inactive) |  | 15.3 µM (inactive) | 20.8 µM (inactive)
4 | COc1cc(/C=C/c2ccc(OC)c(OC)c2OC)cc(OC)c1OC | 15.8 µM (inactive) | 27.2 µM (inactive) | 24.7 µM (inactive) | 12.2 µM (inactive) | 22 µM (inactive) | 14.1 µM (inactive) | 23.1 µM (inactive) | 28.2 µM (inactive) | 23.1 µM (inactive) | 20.8 µM (inactive) | 14.7 µM (inactive) | 29.3 µM (inactive) | 17.6 µM (inactive) | 21.4 µM (inactive) | 16.1 µM (inactive) | 19.3 µM (inactive) | 21.8 µM (inactive) | 20.8 µM (inactive) | 24.9 µM (inactive) | 
5 | COc1cc2c(c3c1c(=O)c1ccccc1n3C)C=CC(C)(C)O2 [ACRONINE] | > 100 µM (inactive) | > 100 µM (inactive) | > 100 µM (inactive) | 0.885 µM (active) | > 100 µM (inactive) | 27.9 µM (inactive) | 52.1 µM (inactive) | > 100 µM (inactive) | 60.7 µM (inactive) | 32.3 µM (inactive) | > 100 µM (inactive) | > 100 µM (inactive) | > 100 µM (inactive) | > 100 µM (inactive) | > 100 µM (inactive) | 16.2 µM (inactive) | 71 µM (inactive) | 56.9 µM (inactive) | > 100 µM (inactive) | 
